# Measurements published in US10485874B2, “Hyaluronic acid modified by sphingosine-1-phosphoric acid” (priority 2014, dated 2019).
# Assays:
# cleaved caspase 3 = test: Rat liver ischemia/reperfusion model: Western blot of cleaved caspase 3 in liver tissue; assay type: in vivo, Sprague-Dawley rats; details: liver tissue 120 minutes after reperfusion
# Protocol: (§1) Male Sprague-Dawley (hereinbelow, SD) rats, 200 to 250 g, were obtained from CLEA Japan, Inc. (Tokyo, Japan). Four groups of SD rats were studied.
# (§2) A study was conducted for a methanol-administration group, where methanol was the solvent for S1P (the content of administration:methanol (50 μl)+3% BSA (150 μl), 200 μl in total), a HA-administration group (the content of administration: 8 kDa HA dissolved in methanol:ultrapure water=1:3 at 0.32564 g/l, 200 μl in total), an S1P-administration group (the content of administration: 100 μg/kg in terms of the dose of S1P, S1P (50 μl)+3% BSA (150 μl), 200 μl in total), a HA-S1P-administration group (the content of administration: 100 μg/kg in terms of the dose of S1P, the HA-S1P formulation prepared at Hokkaido University was dissolved in methanol:ultrapure water=1:3 at 0.358 g/l, 200 μl in total).
# (§3) Each agent was injected into the tail vein of rats. Ten minutes after the injection, the hepatic artery, portal vein, and bile duct were occluded at once with microclips for 20 minutes. Upon completion of 20 minutes of total liver ischemia, the occlusion was released. For pathological examination, liver tissues were removed from 10 to 15 rats in each group 120 minutes after reperfusion. Also, blood was collected immediately before the injection of the agents and 30 minutes, 60 minutes, and 120 minutes after reperfusion. […]
# [1] = system: liver sinusoidal endothelial cells; test: Rat liver ischemia/reperfusion model: electron microscopic evaluation of the microstructure of liver; assay type: in vivo, Sprague-Dawley rats; details: liver excised 120 minutes after reperfusion
# Protocol: as §1, §2
# as §3, with “reperfusion.” for “reperfusion. Also, blood was collected immediately before the injection of the agents and 30 minutes, 60 minutes, and 120 minutes after reperfusion.”
# The liver sinusoidal endothelial cells after ischemia/reperfusion were evaluated with an electron microscopy. […]
# sinusoid structure = test: Rat liver ischemia/reperfusion model: HE staining, pathological evaluation of liver; assay type: in vivo, Sprague-Dawley rats; details: liver tissue 120 minutes after reperfusion; 200× field
# Protocol: as §1, §2
# Each agent was injected into the tail vein of rats. Ten minutes after the injection, the hepatic artery, portal vein, and bile duct were occluded at once with microclips for 20 minutes. Upon completion of 20 minutes of total liver ischemia, the occlusion was released. […]
# The liver tissues were fixed in 10% buffered formalin, and then embedded in paraffin, followed by staining with hematoxylin and eosin. The tissue sections of each group were evaluated. […]
# serum ALT = test: Rat total liver ischemia/reperfusion model: serum ALT (liver function); assay type: in vivo, Sprague-Dawley rats; details: 100 μg/kg in terms of S1P via tail vein 10 min before 20 min total liver ischemia
# Protocol: as §1, §2
# Each agent was injected into the tail vein of rats. Ten minutes after the injection, the hepatic artery, portal vein, and bile duct were occluded at once with microclips for 20 minutes. Upon completion of 20 minutes of total liver ischemia, the occlusion was released. For pathological examination, liver tissues were removed from 10 to 15 rats in each group 120 minutes after reperfusion. Also, blood was collected immediately before the injection of the agents and 30 minutes, 60 minutes, and 120 minutes after reperfusion.
# In order to evaluate the injury of liver parenchyma, the serum ALT value was measured with an autoanalyzer (FUJI DRI-CHEM 7000V, Fujifilm, Tokyo, Japan).
# Statistical analysis was conducted using the Kruskal Wallis H-test and the Mann-Whitney U test with Bonferroni correction as a post hoc test. Also, p< 0.05 was accepted to be indicative of statistical significance.
# Using 200 to 250 g SD rats, four experimental groups (A) to (D) were prepared. […]
# HO-1 = test: Rat liver ischemia/reperfusion model: Western blot of HO-1 in liver tissue; assay type: in vivo, Sprague-Dawley rats; details: liver tissue 120 minutes after reperfusion
# Protocol: as §1, §2, §3
# TUNEL-positive cells = test: Rat liver ischemia/reperfusion model: TUNEL staining of liver (apoptosis-positive cells); assay type: in vivo, Sprague-Dawley rats
# Protocol: as §1, §2
# Each agent was injected into the tail vein of rats. Ten minutes after the injection, the hepatic artery, portal vein, and bile duct were occluded at once with microclips for 20 minutes. […]
# Using DeadEnd® Colorimetric TUNEL System (G7360) supplied by Promega KK, apoptosis-positive cells were immunohistochemically detected. The tissue sections of each group were evaluated. The number of TUNEL-positive cells and the total number of hepatocytes were counted in 10 randomly selected high-power fields (400×) focusing on the portal vein. […]
# [2] = Accumulation of S1P in the liver by Western blot; assay type: in vivo, rat; details: Western blot with anti-S1P antibody; versus the S1P only sample
# Protocol: The expression of S1P in the liver tissues was confirmed by Western blot in accordance with the following method.
# The rat liver tissues stored at −80° C. were homogenized in a buffer prepared from various reagents (150 mmol/L NaCl, 50 mM Tris-Cl, 1% NP-40, and a protease inhibitor). The resulting samples were centrifuged and the supernatants were collected for analysis. The samples thus obtained were separated using 10% SDS-PAGE gel and transferred to nitrocellulose membranes (Millipore, Bedford, Mass.). As the primary antibody, Anti-S1P antibody (ab140592) (1:1000, rabbit polyclonal, Abcam, Cambridge, UK) was used. As the secondary antibody, Anti-rabbit IgG, HRP-linked antibody (#7074S) (1:1000, Cell Signalling Technology, Beverley, Mass., USA) was used.
substance,measurement,setting,value
hyaluronic acid modified with sphingosine-1-phosphate [HA-S1P],expression of the apoptosis-related protein cleaved caspase 3,cleaved caspase 3,inhibited
same,microstructure of LSECs (electron microscopic images),[1],undercoat structure of LSECs was maintained
same,sinusoid structure (HE staining),sinusoid structure,sinusoid structure was maintained
same,serum ALT value,"serum ALT; 30 minutes after reperfusion, versus vehicle and S1P groups",significantly lower
same,serum ALT value,"serum ALT; 60 minutes after reperfusion, versus vehicle, HA and S1P groups",significantly lower
same,serum ALT value,"serum ALT; 120 minutes after reperfusion, versus HA group",significantly lower
same,expression of HO-1,HO-1,increased
same,percentage of TUNEL-positive cells (TUNEL-positive cells/total number of hepatocytes),"TUNEL-positive cells; 400× fields centering around Zone 1, 10 fields per sample, 120 minutes after reperfusion",significantly low
same,"TUNEL staining, positive cells",TUNEL-positive cells; liver tissue 120 minutes after reperfusion,positive cells were almost unobserved
same,expression of S1P in the liver tissues,[2],higher
